Data set [1] concerns spontaneous canine tumors. To be noted: dog, in vivo; cited from earlier work.
In another data set the test system is tumor growth. To be noted: mouse, in vivo; cited from earlier work.
Another data set has as its system first-relapse NHL. To be noted: with lomustine vs lomustine and placebo; cited from earlier work.
The test system of a further data set is MSC. To be noted: in vivo; cited from earlier work.
For another data set, the system named is canine osteosarcoma. To be noted: non-metastatic dogs, cisplatin followed by L-MTP-PE or placebo; cited from earlier work.
A further data set concerns canine MGT. To be noted: dog, in vivo; cited from earlier work.
In another data set the test system is high-grade osteosarcoma. To be noted: added to doxorubicin, cisplatin and high-dose methotrexate; cited from earlier work.
The subject of a further data set is Canine TCC. To be noted: dog, in vivo; cited from earlier work.
Data set [2] concerns circulating neutrophil counts. To be noted: immunosuppressive doses; cited from earlier work.
Another data set relates to NHL. To be noted: cited from earlier work.
For data set [3], the system named is canine soft tissue sarcoma. To be noted: bleomycin and electric pulses; cited from earlier work.
In data set [4] the test system is soft tissue sarcoma. To be noted: intralesional, biphasic electric pulses; cited from earlier work.
The test system of data set [5] is soft tissue sarcoma. To be noted: cited from earlier work.
In another data set the test system is cultured cells. To be noted: cited from earlier work.
The test system of data set [6] is soft tissue sarcoma (STS) or malignant histiocytosis (MH). To be noted: dog, in vivo.
Protocol: Depletion of MSC is accomplished by i.v. administration of LC, which is prepared as described for treatment of dogs with malignant histiocytosis (34). The LC is administered once every 2 weeks by slow i.v. infusion over 60 minutes, at a dose of 0.5 ml/kg.

We go through 11 compounds from patent publication US20160349242A1, “PLATFORM TECHNOLOGIES FOR SPONTANEOUSLY OCCURRING DISEASES” (Oatmeal Biotechnologies Group, LLC, priority 2009, published 2016).

Where two headings read alike, the source gives them in different places. Square brackets hold non-standard residues; d marks the D form. Peptide text beside a SMILES is read from it. d(aIle) = CC[C@H](C)[C@@H](N)C(=O)O; Nva = CCC[C@H](N)C(=O)O; Sar = CNCC(=O)O A value given as a limit tells only on which side of the number the result lay.

On to `CCC[C@H](NC(=O)[C@@H](NC(=O)[C@H](NC(=O)[C@@H](NC(=O)CNC(=O)CN(C)C(C)=O)C(C)C)[C@@H](C)CC)[C@@H](C)O)C(=O)N[C@H](C(=O)N[C@@H](CCCNC(=N)N)C(=O)N1CCC[C@H]1C(=O)NCC)[C@@H](C)CC` [ABT-526] (Ac-[Sar]GV[d(aIle)]T[Nva]IRP-NHEt), for which the relative activity entry in [1] is listed as “more active than ABT-510”. Further, in the data set with tumor growth, the tumor growth entry is on record as “slow tumor growth”. Besides, in the data set on first-relapse NHL, the duration of response result is on record as “modestly enhanced” and the “number of cases responding to chemotherapy” value is given as “did not increase”.
`CC1=C(/C=C/C(C)=C/C=C/C(C)=C/C(=O)O)C(C)(C)CCC1` [ATRA, all-trans retinoic acid]: in the data set with MSC, the spontaneous anti-tumor immunity result is on record as “improved” and the vaccine responses result is “significantly enhanced”.
Take `N.N.[Cl][Pt][Cl]` [cisplatin]: the median survival time in the data set with canine osteosarcoma is given as 9.8 months.
`COc1cccc2c1C(=O)c1c(O)c3c(c(O)c1C2=O)C[C@@](O)(C(=O)CO)C[C@@H]3O[C@H]1C[C@H](N)[C@H](O)[C@H](C)O1` [doxorubicin]: the anti-tumor activity result with canine MGT is listed as “a few partial responses”.
For `O=P1(NCCCl)OCCCN1CCCl` (stereo not drawn) [ifosfamide], in the data set with high-grade osteosarcoma, the “drug free survival (DFS)” value is reported as “did not significantly improve” and the “overall survival (OS)” value is “did not significantly improve”.
Consider `CN1C(C(=O)Nc2ccccn2)=C(O)c2ccccc2S1(=O)=O` [piroxicam], for which, in the data set with Canine TCC, the objective response rate is on record as 18%.
As to `C[C@]12C=CC(=O)C=C1CC[C@@H]1[C@@H]2C(=O)C[C@@]2(C)[C@H]1CC[C@]2(O)C(=O)CO` [prednisone], the “time to rebound in circulating neutrophil counts” value in data set [2] is 48 to 72 h.
On to `Cc1ncc(CO)c(CO)c1O` [pyridoxine], for which, in the data set on NHL (daily Doxil with oral pyridoxine or placebo), the “relative risk of developing PPES, placebo group versus pyridoxine” value is listed as 4.2 times. For the same compound, in the data set with NHL (dog, in vivo), the PPES symptoms entry is “delayed and lessened the symptoms”; the “remission rates between treatment groups” value is reported as “No difference”.
For `CC/C(=C(\c1ccccc1)c1ccc(OCCN(C)C)cc1)c1ccccc1` [tamoxifen], in the data set with canine MGT, the anti-tumor activity result was “does not have demonstrable anti-tumor activity”.
For the compound bleomycin, in [3], the “median time to recurrence” value was 730 days and the response rate is reported as 95%. Also, in the data set on soft tissue sarcoma [4], the long term remissions is 40% and the overall response rate was 80%. Besides, in the data set on soft tissue sarcoma [5] (intraoperative bleomycin with electrotherapy), the “average time of recurrence” value is 12 months. Besides, the “average time of recurrence” value in the data set on soft tissue sarcoma [5] (postoperative bleomycin with electrotherapy) is 19 months. Moreover, the internalized fraction in the data set with cultured cells was under 0.1%.
Take liposomal clodronate [LC]: in [6], the tolerability result is listed as “well-tolerated”.
